Reference: PubChem BioAssay (NCI)
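Step 1: Grow cells in 96-well plates. Step 2: Expose to compound for 48 hours at 5 concentrations. Step 3: Interpolate endpoints linearly; if unreached, use highest concentration. Abbreviation: GI50, concentration required for 50% inhibition of growth. The concentration for full growth arrest is given as TGI.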

Experiments:
Assay in all cases: growth of human tumour cells (NCI), 48 h
[1] = tested on: A549 NSCLC
[2] = tested on: HCT-116 colon
[3] = tested on: MALME-3M melanoma
[4] = tested on: HCC-2998 colon
[5] = tested on: A498 renal
[6] = tested on: KM12 colon
[7] = tested on: HL-60(TB) leukemia
[8] = tested on: COLO 205 colon
[9] = tested on: T-47D breast
[10] = tested on: SN12C renal
[11] = tested on: NCI/ADR-RES ovarian
[12] = tested on: SF-268 CNS
[13] = tested on: OVCAR-3 ovarian
[14] = tested on: NCI-H226 lung
[15] = tested on: M14 melanoma
[16] = tested on: ACHN renal
[17] = tested on: NCI-H522 lung
[18] = tested on: OVCAR-8 ovarian
[19] = tested on: SK-OV-3 ovarian
[20] = tested on: SK-MEL-28 melanoma
[21] = tested on: CAKI-1 renal
[22] = tested on: HOP-62 NSCLC
[23] = tested on: OVCAR-4 ovarian
[24] = tested on: UO-31 renal
[25] = tested on: OVCAR-5 ovarian
[26] = tested on: MDA-MB-231 breast
[27] = tested on: SW-620 colon
[28] = tested on: LOX IMVI melanoma
[29] = tested on: RPMI-8226 leukemia
[30] = tested on: HCT-15 colon
[31] = tested on: UACC-257 melanoma
[32] = tested on: NCI-H23 lung
[33] = tested on: PC-3 prostate
[34] = tested on: NCI-H460 lung
[35] = tested on: SF-539 CNS
[36] = tested on: EKVX NSCLC
[37] = tested on: MDA-N
[38] = tested on: HS 578T breast
[39] = tested on: UACC-62 melanoma
[40] = tested on: SK-MEL-5 melanoma
[41] = tested on: SK-MEL-2 melanoma
[42] = tested on: SNB-75 CNS
[43] = tested on: HOP-92 NSCLC
[44] = tested on: MOLT-4 leukemia
[45] = tested on: K-562 leukemia
[46] = tested on: RXF 393 renal
[47] = tested on: BT-549 breast
[48] = tested on: TK-10 renal
[49] = tested on: SF-295 CNS
[50] = tested on: IGROV1 ovarian
[51] = tested on: CCRF-CEM leukemia
[52] = tested on: U251 CNS
[53] = tested on: MDA-MB-435
[54] = tested on: 786-0 renal
[55] = tested on: SNB-19 CNS
[56] = tested on: MCF7 breast
[57] = tested on: DU-145 prostate
[58] = tested on: HT29 colon
[59] = tested on: SR leukemia

`C[C@H]1CCC/C=C/[C@@H]2C[C@H](O)C[C@H]2[C@H](O)[C@H](S(=O)c2ccc(O)cc2)CC(=O)O1` (stereo not given in full) showed a GI50 [1] of 42.2 nM, a TGI [1] of over 100 µM and a GI50 [2] of 25.6 nM. The TGI [2] was 0.0633 µM, the GI50 [3] was 20.2 nM and the TGI [3] was 0.0709 µM. The GI50 [4] was 27.8 nM, the TGI [4] was 0.0951 µM and the GI50 [5] was 30.7 nM. It also gave a TGI [5] of 0.0716 µM, a GI50 [6] of under 14.6 nM and a GI50 [7] of 33.8 nM. The TGI [7] was 139 nM, the GI50 [8] was 18.3 nM and the TGI [8] was 0.0544 µM. It also gave a GI50 [9] of 200 nM, a TGI [9] of 0.67 µM and a GI50 [10] of 49.7 nM. It also gave a TGI [10] of 0.489 µM, a GI50 [11] of 17.4 nM and a TGI [11] of 0.0758 µM. For the same compound, the TGI [12] was over 100 µM, the GI50 [13] was 21 nM and the TGI [13] was 1.02 µM. It also gave a GI50 [14] of 34.4 nM, a TGI [14] of 0.146 µM and a GI50 [15] of 33 nM. It also gave a TGI [15] of over 100 µM, a GI50 [16] of 65.4 nM and a TGI [16] of 0.41 µM. It also gave a GI50 [17] of 141 nM, a TGI [17] of 3.34 µM and a GI50 [18] of under 16.7 nM. The TGI [18] was 0.238 µM, the GI50 [19] was under 20.5 nM and the GI50 [20] was 31.6 nM. The TGI [20] was over 100 µM, the GI50 [21] was 114 nM and the GI50 [22] was 85.5 nM. For the same compound, the TGI [22] was over 65.6 µM, the GI50 [23] was 23.1 nM and the TGI [23] was 978 nM. It also gave a GI50 [24] of 20.5 nM, a TGI [24] of 0.519 µM and a GI50 [25] of 61.3 nM. For the same compound, the GI50 [26] was 24.5 nM, the TGI [26] was 53.3 nM and the GI50 [27] was 50.6 nM. For the same compound, the TGI [27] was over 100 µM, the GI50 [28] was 20.8 nM and the TGI [28] was 53.3 nM. It also gave a GI50 [29] of 92.2 nM, a TGI [29] of 2.52 µM and a GI50 [30] of 44.3 nM. For the same compound, the TGI [30] was 1.69 µM, the GI50 [31] was 22.2 nM and the GI50 [32] was 27.3 nM. The TGI [32] was 0.143 µM, the GI50 [33] was 34.3 nM and the GI50 [34] was 16.8 nM. The TGI [34] was 0.0703 µM, the GI50 [35] was under 15.7 nM and the TGI [35] was over 36.4 µM. It also gave a GI50 [36] of 82.4 nM, a TGI [36] of over 36.9 µM and a GI50 [37] of 40.9 nM. The GI50 [38] was 72.6 nM, the TGI [38] was over 100 µM and the GI50 [39] was 34.9 nM. For the same compound, the TGI [39] was over 100 µM, the TGI [40] was 121 nM and the GI50 [41] was 48.5 nM. It also gave a TGI [41] of 504 nM, a GI50 [42] of under 18 nM and a TGI [42] of over 100 µM. It also gave a GI50 [43] of 52.9 nM, a TGI [43] of over 100 µM and a GI50 [44] of under 21.2 nM. The GI50 [45] was 99.4 nM, the TGI [45] was over 100 µM and the GI50 [46] was under 10.6 nM. It also gave a TGI [46] of 61 nM, a GI50 [47] of 47.2 nM and a TGI [47] of over 100 µM. The GI50 [48] was 39.2 nM, the TGI [48] was 2180 nM and the GI50 [49] was 69.8 nM. It also gave a TGI [49] of over 100 µM, a GI50 [50] of 147 nM and a GI50 [51] of 48 nM. It also gave a GI50 [52] of 40.3 nM, a TGI [52] of over 77.4 µM and a GI50 [53] of 41.7 nM. For the same compound, the GI50 [54] was 25.1 nM, the TGI [54] was 0.0793 µM and the GI50 [55] was 187 nM. It also gave a TGI [55] of over 100 µM and a GI50 [56] of 32.3 nM.
In the case of `O=[N+]([O-])C(/C(Cl)=C(/Cl)N1CCCCC1)=C1\NCCO1`, the TGI [1] is reported as over 100 µM, the TGI [2] is reported as over 100 µM and the TGI [3] is reported as over 100 µM. For the same compound, the TGI [4] was over 100 µM, the TGI [5] was over 100 µM and the TGI [6] was over 100 µM. It also gave a TGI [8] of over 100 µM, a TGI [9] of over 100 µM and a TGI [10] of over 100 µM. The TGI [11] was over 100 µM, the TGI [12] was over 100 µM and the TGI [13] was over 100 µM. For the same compound, the TGI [14] was over 100 µM, the TGI [15] was over 100 µM and the TGI [16] was over 100 µM. It also gave a TGI [18] of over 100 µM, a TGI [19] of over 100 µM and a TGI [20] of over 100 µM. For the same compound, the TGI [21] was over 100 µM, the TGI [22] was over 100 µM and the TGI [23] was over 100000 nM. The TGI [24] was over 100 µM, the TGI [25] was over 100 µM and the TGI [26] was over 100000 nM. For the same compound, the TGI [27] was over 100 µM, the TGI [29] was over 100 µM and the TGI [30] was over 100 µM. It also gave a TGI [31] of over 100 µM, a TGI [32] of over 100 µM and a TGI [33] of over 100 µM. The TGI [34] was over 100 µM, the TGI [35] was over 100 µM and the TGI [36] was over 100 µM. The TGI [57] was over 100 µM, the TGI [37] was over 100 µM and the TGI [38] was over 100 µM. The TGI [58] was over 100 µM, the TGI [39] was over 100 µM and the TGI [41] was over 100000 nM. For the same compound, the TGI [42] was over 100 µM, the TGI [44] was over 100 µM and the TGI [47] was over 100 µM. The TGI [49] was over 100 µM, the TGI [51] was over 100 µM and the TGI [52] was over 100 µM. For the same compound, the TGI [53] was over 100 µM, the TGI [54] was over 100 µM and the TGI [55] was over 100 µM. The TGI [56] was over 100 µM.
Compound `CON(C)C(=O)C(Cc1ccccc1)NC(=O)OC(C)(C)C` (stereo not given) has a TGI [1] of over 100 µM, a TGI [2] of over 100 µM and a TGI [3] of over 100 µM. The TGI [4] was over 100 µM, the TGI [5] was over 100 µM and the TGI [6] was over 100 µM. It also gave a TGI [7] of over 100000 nM, a TGI [8] of over 100 µM and a TGI [9] of over 100 µM. The TGI [10] was over 100 µM, the TGI [11] was over 100 µM and the TGI [12] was over 100 µM. The TGI [13] was over 100 µM, the TGI [14] was over 100 µM and the TGI [15] was over 100 µM. For the same compound, the TGI [16] was over 100 µM, the TGI [18] was over 100 µM and the TGI [19] was over 100 µM. The TGI [20] was over 100 µM, the TGI [22] was over 100 µM and the TGI [24] was over 100 µM. For the same compound, the TGI [25] was over 100 µM, the TGI [27] was over 100 µM and the TGI [29] was over 100 µM. For the same compound, the TGI [30] was over 100 µM, the TGI [31] was over 100 µM and the TGI [32] was over 100 µM. The TGI [33] was over 100 µM, the TGI [34] was over 100 µM and the TGI [35] was over 100 µM. It also gave a TGI [59] of over 100 µM, a TGI [36] of over 100 µM and a TGI [57] of over 100 µM. It also gave a TGI [37] of over 100 µM, a TGI [38] of over 100 µM and a TGI [58] of over 100 µM. It also gave a TGI [39] of over 100 µM, a TGI [40] of over 100000 nM and a TGI [42] of over 100 µM. The TGI [43] was over 100 µM, the TGI [44] was over 100 µM and the TGI [45] was over 100 µM. It also gave a TGI [46] of over 100000 nM, a TGI [47] of over 100 µM and a TGI [48] of over 100000 nM. It also gave a TGI [49] of over 100 µM, a TGI [50] of over 100 µM and a TGI [51] of over 100 µM. The TGI [52] was over 100 µM, the TGI [53] was over 100 µM and the TGI [54] was over 100 µM. For the same compound, the TGI [55] was over 100 µM and the TGI [56] was over 100 µM.
